From patent US20230212171A1, “ALLOSTERIC EGFR INHIBITORS AND METHODS OF USE THEREOF” (Dana-Farber Cancer Institute, Inc., priority 2020, published 2023)
pIC50: −log10 of the molar value. Counter-ions that a name gives are not always drawn. Like-named read-outs stand apart in the source and are kept apart here.

Assays:
EGFR L858R/T790M = EGFR L858R/T790M (Homo sapiens, UniProt P00533, L858R/T790M); assay: HTRF-based EGFR biochemical assay (L858R/T790M); conditions: enzyme 0.02 nM, ATP 100 µM, 30 min preincubation
Sequence of EGFR L858R/T790M (P00533 25-1210 T790M/L858R): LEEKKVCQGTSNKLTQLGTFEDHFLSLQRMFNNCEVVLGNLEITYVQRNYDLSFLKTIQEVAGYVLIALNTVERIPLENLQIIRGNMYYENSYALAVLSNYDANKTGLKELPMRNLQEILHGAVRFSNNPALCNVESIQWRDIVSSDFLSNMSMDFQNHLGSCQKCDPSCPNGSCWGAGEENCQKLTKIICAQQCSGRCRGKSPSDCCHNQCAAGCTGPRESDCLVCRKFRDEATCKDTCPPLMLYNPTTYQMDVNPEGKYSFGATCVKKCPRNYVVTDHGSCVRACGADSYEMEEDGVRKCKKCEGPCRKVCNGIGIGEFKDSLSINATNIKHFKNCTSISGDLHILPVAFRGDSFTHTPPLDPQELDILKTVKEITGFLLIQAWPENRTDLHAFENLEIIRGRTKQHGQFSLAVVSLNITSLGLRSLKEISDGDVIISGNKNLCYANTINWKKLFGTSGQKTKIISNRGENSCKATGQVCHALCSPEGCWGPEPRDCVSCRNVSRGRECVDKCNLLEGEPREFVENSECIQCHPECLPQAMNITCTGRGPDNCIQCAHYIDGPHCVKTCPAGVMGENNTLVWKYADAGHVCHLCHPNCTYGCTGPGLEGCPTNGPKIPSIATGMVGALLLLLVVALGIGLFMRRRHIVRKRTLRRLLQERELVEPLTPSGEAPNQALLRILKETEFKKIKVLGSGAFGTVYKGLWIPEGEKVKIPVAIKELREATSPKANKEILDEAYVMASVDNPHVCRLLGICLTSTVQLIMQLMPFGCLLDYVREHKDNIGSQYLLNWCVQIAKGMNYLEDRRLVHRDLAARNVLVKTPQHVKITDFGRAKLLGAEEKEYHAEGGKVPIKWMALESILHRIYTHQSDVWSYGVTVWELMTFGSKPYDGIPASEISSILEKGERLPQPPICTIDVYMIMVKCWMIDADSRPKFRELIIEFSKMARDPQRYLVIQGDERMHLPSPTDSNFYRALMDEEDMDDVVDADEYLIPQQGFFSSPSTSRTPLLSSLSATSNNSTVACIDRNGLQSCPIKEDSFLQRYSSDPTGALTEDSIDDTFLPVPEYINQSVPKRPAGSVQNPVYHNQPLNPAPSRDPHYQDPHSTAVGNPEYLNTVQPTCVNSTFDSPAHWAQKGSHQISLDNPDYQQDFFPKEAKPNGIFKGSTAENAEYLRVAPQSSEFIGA
Experimental: (§1) EGFR biochemical activity measurements were carried out using the homogeneous time-resolved fluorescence (HTRF) assay (Cisbio). Inhibitors and DMSO normalizations were first dispensed to empty black low-volume 384-well plates (Corning) with D300 digital liquid dispenser (HP). All reactions were carried out at room temperature and solutions were added to plates with a Multidrop Combi Reagent Dispenser (ThermoFisher). The reaction mixture (10 µL final volume) contained 1 µM tyrosine kinase peptide-biotin substrate and mutant EGFR in a reaction buffer (50 mM HEPES pH 7.0, 5 mM MgCl2, 1 mM MnCl2, 0.01% BSA, 2 mM TCEP, 0.1 mM NaVO4). Enzyme concentrations were adjusted to accommodate varying kinase activities (L858R 0.1 nM, L858R/T790M 0.02 nM). Enzyme reaction solution (2× concentrations, 5 µL) was added to 384-well plates containing compounds and incubated for 30 mins. Enzyme reactions were initiated with the addition of 5 µL of ATP to a final concentration of 100 µM and reacted for 20 mins. Reactions were quenched with the addition of 10 µL of phospho-tyrosine antibody-Europium(III) cryptate (1-to-180 volume ratio) and Streptavidin-XL665 (46.7 nM) in EDTA-containing detection buffer, then incubated at room temperature for 1 hour, and read with a PHERAstar plate reader (excitation = 337 nm, emission = 620 nm and 665 nm). IC50 values were determined by inhibition curves (11-point curves from 1.0 µM to 0.130 nM or 23-point curves from 1.0 µM to 0.130 pM) in triplicate with non-linear least squares fit in GraphPad Prism 7.0d.

[1] = target: EGFR mutant L858R Ba/F3 cells (Homo sapiens, UniProt P00533, L858R, cells depend on it); assay: Ba/F3 cell proliferation model (Cell Titer Glo), EGFR L858R; format: cell-based, murine; conditions: single agent, 72 hours; read-out: Cell ICso BaF3 EGFR L858R
Sequence of EGFR mutant L858R Ba/F3 cells (P00533 whole entry L858R): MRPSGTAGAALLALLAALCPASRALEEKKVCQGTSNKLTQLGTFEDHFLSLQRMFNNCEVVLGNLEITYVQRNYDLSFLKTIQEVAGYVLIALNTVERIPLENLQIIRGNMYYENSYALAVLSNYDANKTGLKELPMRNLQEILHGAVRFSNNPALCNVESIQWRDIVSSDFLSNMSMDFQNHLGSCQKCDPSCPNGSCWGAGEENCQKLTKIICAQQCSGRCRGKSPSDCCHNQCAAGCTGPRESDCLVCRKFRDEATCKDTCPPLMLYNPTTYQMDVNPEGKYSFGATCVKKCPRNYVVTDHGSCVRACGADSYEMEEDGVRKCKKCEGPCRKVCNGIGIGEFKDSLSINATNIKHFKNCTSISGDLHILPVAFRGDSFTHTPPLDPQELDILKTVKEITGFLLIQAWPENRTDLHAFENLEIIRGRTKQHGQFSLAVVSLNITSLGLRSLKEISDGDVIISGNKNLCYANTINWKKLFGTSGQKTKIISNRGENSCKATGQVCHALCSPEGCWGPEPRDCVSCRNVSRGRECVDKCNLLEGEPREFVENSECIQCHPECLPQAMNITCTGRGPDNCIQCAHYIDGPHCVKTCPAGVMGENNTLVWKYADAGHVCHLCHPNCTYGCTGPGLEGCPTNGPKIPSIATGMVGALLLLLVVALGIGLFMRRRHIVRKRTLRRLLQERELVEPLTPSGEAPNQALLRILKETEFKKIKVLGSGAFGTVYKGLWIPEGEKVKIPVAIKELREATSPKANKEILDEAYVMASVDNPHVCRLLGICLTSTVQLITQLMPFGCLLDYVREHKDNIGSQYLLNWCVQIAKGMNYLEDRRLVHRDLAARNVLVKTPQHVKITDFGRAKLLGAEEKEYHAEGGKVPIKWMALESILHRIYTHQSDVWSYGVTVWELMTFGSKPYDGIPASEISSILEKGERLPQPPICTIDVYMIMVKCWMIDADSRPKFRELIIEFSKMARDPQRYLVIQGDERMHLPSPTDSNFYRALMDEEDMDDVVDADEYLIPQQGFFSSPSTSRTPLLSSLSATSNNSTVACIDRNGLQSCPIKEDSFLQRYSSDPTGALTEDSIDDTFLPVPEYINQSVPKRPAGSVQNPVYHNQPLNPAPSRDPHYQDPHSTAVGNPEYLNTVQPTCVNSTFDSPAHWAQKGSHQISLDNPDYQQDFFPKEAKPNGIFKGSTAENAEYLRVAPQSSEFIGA
Description: (§2) The EGFR mutant L858R and L858R/T790M Ba/F3 cells have been previously described (Zhou, W., et al. Nature 462, 2009, 1070-1074). All cell lines were maintained in RPMI 1640 (Cellgro; Mediatech Inc., Herndon, CA) supplemented with 10% FBS, 100 units/mL penicillin, 100 units/mL streptomycin. The EGFR I941R mutation was introduced via site directed mutagenesis using the Quick Change Site-Directed Mutagenesis kit (Stratagene; La Jolla, CA) according to the manufacturer’s instructions. All constructs were confirmed by DNA sequencing. The constructs were shuttled into the retroviral vector JP1540 using the Cre-recombination system (Agilent Technologies, Santa Clara, CA). Ba/F3 cells were then infected with retrovirus per standard protocols, as described previously (Zhou, et al, Nature 2009). Stable clones were obtained by selection in puromycin (2 µg/ml).
(§3) Growth and inhibition of growth was assessed by the Cell Titer Glo assay (Promega, Madison, WI) and was performed according to the manufacturer’s instructions. The Cell Titer Glo assay is a luminescence-based method used to determine the number of viable cells based on quantitation of the ATP present, which is directly proportional to the amount of metabolically active cells present. Ba/F3 cells of different EGFR genotypes were exposed to compounds as a single agent or in combination with 1 µg/mL cetuximab for 72 hours and the number of cells used per experiment was determined empirically as has been previously established (Zhou, et al., Nature 2009). All experimental points were set up in triplicates in 384-well plates and all experiments were repeated at least three times. […] The curves were fitted using a non-linear regression model with a sigmoidal dose response.

EGFR L858R = EGFR L858R (Homo sapiens, UniProt P00533, L858R); assay: HTRF-based EGFR biochemical assay (L858R); conditions: enzyme 0.1 nM, ATP 100 µM, 30 min preincubation
Sequence of EGFR L858R (P00533 25-1210 L858R): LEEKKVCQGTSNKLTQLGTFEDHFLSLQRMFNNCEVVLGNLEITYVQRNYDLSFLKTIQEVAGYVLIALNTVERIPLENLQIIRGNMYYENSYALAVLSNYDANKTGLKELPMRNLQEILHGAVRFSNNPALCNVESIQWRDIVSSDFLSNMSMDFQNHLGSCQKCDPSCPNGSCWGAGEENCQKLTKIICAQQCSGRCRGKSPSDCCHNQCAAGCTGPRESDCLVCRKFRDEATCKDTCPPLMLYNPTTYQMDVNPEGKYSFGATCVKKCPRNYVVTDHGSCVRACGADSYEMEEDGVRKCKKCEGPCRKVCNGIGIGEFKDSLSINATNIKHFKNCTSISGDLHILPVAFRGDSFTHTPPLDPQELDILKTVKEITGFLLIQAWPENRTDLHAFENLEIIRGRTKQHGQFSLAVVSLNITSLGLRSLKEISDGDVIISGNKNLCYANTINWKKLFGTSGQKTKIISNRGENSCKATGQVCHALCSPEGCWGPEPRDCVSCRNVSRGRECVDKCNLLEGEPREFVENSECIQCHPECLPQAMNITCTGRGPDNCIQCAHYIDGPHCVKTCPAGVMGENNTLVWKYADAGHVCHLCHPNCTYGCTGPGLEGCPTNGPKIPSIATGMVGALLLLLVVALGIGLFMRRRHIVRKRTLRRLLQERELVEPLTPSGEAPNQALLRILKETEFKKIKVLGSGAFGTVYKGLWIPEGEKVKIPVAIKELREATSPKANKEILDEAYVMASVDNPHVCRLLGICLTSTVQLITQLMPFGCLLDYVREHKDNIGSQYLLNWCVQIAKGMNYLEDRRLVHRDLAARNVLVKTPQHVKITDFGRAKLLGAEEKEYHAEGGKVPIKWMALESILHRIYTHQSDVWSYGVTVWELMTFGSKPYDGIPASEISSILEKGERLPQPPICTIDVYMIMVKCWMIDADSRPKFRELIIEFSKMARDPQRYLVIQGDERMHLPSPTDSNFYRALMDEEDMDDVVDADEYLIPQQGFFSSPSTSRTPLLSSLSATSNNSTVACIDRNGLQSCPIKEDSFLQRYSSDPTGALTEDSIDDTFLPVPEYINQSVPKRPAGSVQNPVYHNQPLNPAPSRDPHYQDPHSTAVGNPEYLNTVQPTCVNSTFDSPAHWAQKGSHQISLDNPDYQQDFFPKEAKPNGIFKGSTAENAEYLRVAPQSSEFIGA
Experimental: as §1

[2] = target: EGFR mutant L858R/T790M Ba/F3 cells (Homo sapiens, UniProt P00533, T790M/L858R, cells depend on it); assay: Ba/F3 cell proliferation model (Cell Titer Glo), EGFR L858R/T790M; format: cell-based, murine; conditions: 72 hours
Sequence of EGFR mutant L858R/T790M Ba/F3 cells (P00533 whole entry T790M/L858R): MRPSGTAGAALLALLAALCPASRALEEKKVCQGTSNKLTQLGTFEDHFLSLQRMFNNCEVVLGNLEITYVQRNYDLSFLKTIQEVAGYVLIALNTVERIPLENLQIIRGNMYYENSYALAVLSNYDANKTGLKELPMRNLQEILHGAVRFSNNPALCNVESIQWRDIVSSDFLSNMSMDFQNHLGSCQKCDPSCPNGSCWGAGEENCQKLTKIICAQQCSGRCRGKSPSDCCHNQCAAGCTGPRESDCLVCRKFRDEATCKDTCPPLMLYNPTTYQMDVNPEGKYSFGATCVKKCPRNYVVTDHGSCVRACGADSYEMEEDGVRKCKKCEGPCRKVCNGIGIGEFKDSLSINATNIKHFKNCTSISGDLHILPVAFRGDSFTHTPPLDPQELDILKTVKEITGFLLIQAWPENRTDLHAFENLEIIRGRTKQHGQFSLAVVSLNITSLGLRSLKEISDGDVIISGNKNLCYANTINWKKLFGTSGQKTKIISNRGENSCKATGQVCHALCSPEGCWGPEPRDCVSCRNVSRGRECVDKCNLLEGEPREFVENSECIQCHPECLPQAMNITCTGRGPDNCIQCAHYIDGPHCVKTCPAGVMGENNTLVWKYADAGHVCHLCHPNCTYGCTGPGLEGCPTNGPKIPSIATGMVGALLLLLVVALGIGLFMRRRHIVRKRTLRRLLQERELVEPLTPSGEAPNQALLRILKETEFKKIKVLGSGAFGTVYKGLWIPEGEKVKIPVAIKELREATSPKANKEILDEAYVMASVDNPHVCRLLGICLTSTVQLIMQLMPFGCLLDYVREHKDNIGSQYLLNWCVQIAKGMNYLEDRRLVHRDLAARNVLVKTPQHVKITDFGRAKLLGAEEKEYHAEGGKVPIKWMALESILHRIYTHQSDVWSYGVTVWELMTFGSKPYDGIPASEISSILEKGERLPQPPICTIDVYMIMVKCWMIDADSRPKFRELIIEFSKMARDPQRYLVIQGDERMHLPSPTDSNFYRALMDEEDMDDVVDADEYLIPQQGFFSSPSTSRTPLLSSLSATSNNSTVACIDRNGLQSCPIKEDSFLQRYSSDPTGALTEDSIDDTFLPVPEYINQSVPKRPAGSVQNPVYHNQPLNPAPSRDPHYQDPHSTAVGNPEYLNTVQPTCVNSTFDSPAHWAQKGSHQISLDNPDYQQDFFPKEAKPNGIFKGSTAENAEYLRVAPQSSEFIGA
Description: as §2, §3

[3] = single agent, read-out: Cell IC50 BaF3 EGFR L858R/T790M

| SMILES | pIC50 (EGFR L858R/T790M) | GI50 [1] | pIC50 (EGFR L858R) | GI50 [2, 3] | GI50 ([2]; in combination with 1 µg/mL cetuximab, read-out: Cell IC50 BaF3 EGFR L858R/T790M (+ cetux.)) |
| --- | --- | --- | --- | --- | --- |
| CN1CCC(c2ccc(-c3cc4c(=O)n(C(C(=O)Nc5nccs5)c5ccccc5)ccc4s3)cc2)CC1 (stereo not drawn) [Compound 005, 2-[2-[4-(1-methyl-4-piperidyl)phenyl]-4-oxo-thieno[3,2-c]pyridin-5-yl]-2-phenyl-N-thiazol-2-yi-acetamide] | 9.10 | 1550 nM | 8.52 | 2040 nM | – |
| CN1CCC(c2ccc(-c3cc4ccn([C@@H](c5nc6ccccc6[nH]5)c5cc(F)ccc5O)c(=O)c4s3)cc2)CC1 (single isomer, unassigned) [Compound 015] | 9.70 | 40 nM | 9.05 | 10 nM | – |
| CN1CCC(c2ccc(-c3cc4c(=O)n(C(c5ccccc5)c5nc6ccccc6[nH]5)cnn4c3)cc2)CC1 (stereo not drawn) [Compound 002, 3-((1H-Benzo[d]Imidazol-2-Yl)(Phenyl)Methyl)-6-(4-(1-Methylpiperidin-4-Yl)Phenyl)Pyrrolo [2,1-f][1,2,4]Triazin-4(3H)-One;Hydrochloride] | < 7.00 | 2240 nM | < 7.00 | 2630 nM | – |
| CN1CCC(c2ccc(-c3cc4c(=O)n(C(c5nc6ccccc6[nH]5)c5cc(F)ccc5O)ccc4s3)cc2)CC1 (stereo not drawn) [Compound 010, 5-[1H-benzimidazol-2-yl-(5-fluoro-2-hydroxy-phenyl)methyl]-2-[4-(1-methyl-4-piperidyl)phenyl]thieno[3,2-c]pyridin-4-one;dihydrochloride] | 9.10 | 1080 nM | 8.70 | 240 nM | – |
| CN1CCC(c2ccc(-c3cc4c(s3)C(=O)N(C(c3nc5ccccc5[nH]3)c3cc(F)ccc3O)CC4)cc2)CC1 (stereo not drawn) [Compound 011, 6-[1H-benzimidazol-2-yl-(5-fluoro-2-hydroxy-phenyl)methyl]-2-[4-(1-methyl-4-piperidyl)phenyl]-4,5-dihydrothieno[2,3-c]pyridin-7-one;dihydrochloride] | 8.70 | 490 nM | 8.22 | 280 nM | – |
| CN1CCC(c2ccc(-c3cc4ccn(C(C(=O)Nc5nccs5)c5ccccc5)c(=O)c4s3)cc2)CC1 (stereo not drawn) [Compound 007, 2-[2-[4-(1-methyl-4-piperidyl)phenyl]-7-oxo-thieno[2,3-c]pyridin-6-yl]-2-phenyl-N-thiazol-2-yl-acetamide;hydrochloride] | 9.22 | 360 nM | 8.52 | 570 nM | – |
| CN1CCC(c2ccc(-c3cc4c(=O)n(C(c5ccccc5)c5nc6ccccc6[nH]5)ccc4s3)cc2)CC1 (stereo not drawn) [Compound 006] | 7.72 | 3130 nM | 7.68 | 3550 nM | – |
| CN1CCC(c2ccc(-c3cc4ccn([C@H](c5nc6ccccc6[nH]5)c5cc(F)ccc5O)c(=O)c4s3)cc2)CC1 (single isomer, unassigned) [Compound 016] | 7.77 | – | 7.39 | – | – |
| CN1CCC(c2ccc(-c3cc4ncn(C(c5ccccc5)c5nc6ccccc6[nH]5)c(=O)c4s3)cc2)CC1 (stereo not drawn) [Compound 004, 3-((1H-benzo[d]imidazol-2-yl)(phenyl)methyl)-6-(4-(1-methylpiperidin-4-yl)phenyl)thieno[3,2-d]pyrimidin-4(3H)-one] | < 7.00 | 4570 nM | < 7.00 | 3680 nM | – |
| CN1CCC(c2ccc(-c3cc4ncn(C(C(=O)Nc5nccs5)c5ccccc5)c(=O)c4s3)cc2)CC1 (stereo not drawn) [Compound 003, 2-(6-(4-(1-Methylpiperidin-4-Yl)Phenyl)-4-Oxothieno[3,2-d)Pyrimidin-3(4H)-Yl)-2-Phenyl-N-(Thiazol-2-Yl)Acetamide] | 7.54 | 850 nM | 7.51 | 890 nM | – |
| CN1CCC(c2ccc(-c3cc4c(=O)n(C(C(=O)Nc5nccs5)c5ccccc5)cnn4c3)cc2)CC1 (stereo not drawn) [Compound 001, 2-(6-(4-(1-Methylpiperidin-4-Yl)Phenyl)-4-Oxopyrrolo[2,1-f][1,2,4]-Triazin-3(4H)-Yl)-2-Phenyl-N-(Thiazol-2-yl)Acetamide;Hydrochloride] | 9.00 | – | 8.30 | 2300 nM | 90 nM |

The next lines start with the values.

| pIC50 (EGFR L858R/T790M) | GI50 [1] | pIC50 (EGFR L858R) | GI50 [2, 3] | GI50 ([2]; in combination with 1 µg/mL cetuximab, read-out: Cell IC50 BaF3 EGFR L858R/T790M (+ cetux.)) | SMILES |
| --- | --- | --- | --- | --- | --- |
| 9.22 | – | 8.70 | – | – | CN1CCC(c2ccc(-c3nc4c(s3)C(=O)N(C(C(=O)Nc3nccs3)c3cc(F)ccc3O)CC4)cc2)CC1 (stereo not drawn) [Compound 021, 2-(5-Fluoro-2-hydroxyphenyl)-2-(2-(4-(1-methylpiperidin-4-yl)phenyl)-4-oxo-6,7-dihydrothiazolo[5,4-c]pyridin-5(4H)-yl)-N-(thiazol-2-yl)acetamide] |
| 9.70 | – | 9.70 | – | – | CN1CCC(c2ccc(-c3cc4c(F)cn(C(c5nc6ccccc6[nH]5)c5cc(F)ccc5O)c(=O)c4s3)cc2)CC1 (stereo not drawn) [Compound 020, 6-((1H-Benzo[d]Imidazol-2-Yl)(5-Fluoro-2-Hydroxyphenyl)Methyl)-4-Fluoro-2-(4-(1-methylpiperidin-4-Yl)Phenyl)Thieno[2,3-c]Pyridin-7(6H)-One] |
| 9.30 | – | 9.15 | – | – | CN1CCC(c2ccc(-c3cc4c(F)cn(C(C(=O)Nc5nccs5)c5cc(F)ccc5O)c(=O)c4s3)cc2)CC1 (stereo not drawn) [Compound 019, 2-(4-Fluoro-2-(4-(1-Methylpiperidin-4-Yl)Phenyl)-7-Oxothieno[2,3-c]Pyridin-6(7H)-Yl)-2-(5-Fluoro-2-Hydroxyphenyl)-N-(Thiazol-2-Yl)Acetamide] |
| 8.52 | – | 8.15 | – | – | CN1CCC(c2ccc(-c3nc4ccn(C(c5nc6ccccc6[nH]5)c5cc(F)ccc5O)c(=O)c4s3)cc2)CC1 (stereo not drawn) [Compound 023, 5-((1H-Benzo[d]imidazol-2-yl)(5-fluoro-2-hydroxyphenyl)methyl)-2-(4-(1-methylpiperidin-4-yl)phenyl)thiazolo[5,4-c]pyridin-4(5H)-one] |
| 9.15 | – | 8.70 | – | – | [2H]C(c1nc2ccccc2[nH]1)(c1cc(F)ccc1O)n1ccc2cc(-c3ccc(C4CCN(C)CC4)cc3)sc2c1=O (stereo not drawn) [Compound 024, 6-((1H-Benzo[d]Imidazol-2-yl)(5-Fluoro-2-Hydroxyphenyl)Methyl-d)-2-(4-(1-Methylpiperidin-4-Yl)Phenyl)Thieno[2,3-c]Pyridin-7(6H)-One] |
| – | – | – | 1090 nM | – | CN1CCC(c2ccc(-c3ccc4c(c3)N(C)C(=O)N(C(c3nc5ccccc5[nH]3)c3cc(F)ccc3O)C4)cc2)CC1 (stereo not drawn) [Compound 017, 3-[1H-benzimidazol-2-yl-(5-fluoro-2-hydroxy-phenyl)methyl]-1-methyl-7-[4-(1-methyl-4-piperidyl)phenyl]-4H-quinazolin-2-one;dihydrochloride] |
| 8.15 | – | 8.05 | – | – | CN1CCC(c2ccc(-c3cc4ccn(C(c5ccccc5)c5cc6ccccc6[nH]5)c(=O)c4s3)cc2)CC1 (stereo not drawn) [Compound 025, 6-((1H-Indol-2-Yl)(Phenyl)Methyl)-2-(4-(1-Methylpiperidin-4-Yl)Phenyl)Thieno[2,3-c]Pyridin-7(6H)-One] |
| 7.96 | – | 7.92 | – | – | CN1CCC(c2ccc(-c3nc4c(s3)C(=O)N(C(c3nc5ccccc5[nH]3)c3cc(F)ccc3O)CC4)cc2)CC1 (stereo not drawn) [Compound 022, 5-((1H-Benzo[d]imidazol-2-yl)(5-fluoro-2-hydroxyphenyl)methyl)-2-(4-(1-methylpiperidin-4-yl)phenyl)-6,7-dihydrothiazolo[5,4-c]pyridin-4(5H)-one] |
